{"source": "patent US20080161273A1", "about": "“Method of Using Adapalene in Acne Maintenance Therapy” (GALDERMA RESEARCH & DEVELOPMENT, priority 2004, published 2008)", "key": {"[1]": {"assay": "16-week maintenance therapy study: safety, local facial tolerability, adverse events, discontinuation", "format": "in vivo, human", "from_the_text": "The efficacy and safety of the adapalene gel 0.1% (Galderma Laboratories, LP, Ft. Worth, Tex.) as a maintenance therapy were compared to gel vehicle in a randomized, multicenter, vehicle-controlled, investigator-blind, parallel group study conducted at 34 centers in the United States between Nov. 13, 2003 and May 25, 2004. This study was designed to set a high threshold for achieving success. […] These subjects were re-randomized consecutively in a 1:1 ratio to receive either adapalene gel 0.1% or adapalene gel vehicle once-daily in the evening for an additional 16 weeks. Subjects were stratified by the treatment assignment received in the previous study using an interactive voice responsive system. The randomization schedule remained blinded from those involved in the clinical conduct of the study. The integrity of the blinding was ensured by packaging the topical medication in identical tubes and requiring a third party other than the investigator/evaluator to dispense the medication.\nSafety and tolerability were assessed through evaluations of local facial tolerability and adverse events. At each visit, the investigator rated erythema, scaling, dryness, and stinging/burning on a scale ranging from 0 (none) to 3 (severe). Mean scores at each postbaseline visit and worst score (worst observation recorded for a subject during the post-baseline period) were recorded. Adverse events were also evaluated at each visit.\nThree study populations were analyzed. The safety population was defined as all patients randomized and treated at least once. The intent-to-treat (ITT) population included all randomized subjects who were dispensed study medication. The per-protocol (PP) population included all randomized subjects without any major protocol deviations."}, "[2]": {"assay": "5-question subject satisfaction survey at last visit of the maintenance study", "format": "in vivo, human", "settings": "P=0.94 vs vehicle", "from_the_text": "The primary efficacy variable was the failure rate at week 16, defined as the percentage of subjects unable to maintain 50% of total lesion count improvement from the previous 12-week combination therapy study (e.g., a subject entering the maintenance phase after having lost 40 lesions in the combination study was considered as a failure if the lesion count at the end of the maintenance study was increased by more than 20 lesions). Data from this assessment is presented graphically herein as a maintenance rate, which is simply 100% minus the failure rate. Secondary efficacy variables included lesion counts (total, inflammatory and non inflammatory), failure rates for inflammatory and non-inflammatory lesions, as well as global severity and global improvement of the disease. At the last visit, subject satisfaction was assessed via a 5-question survey."}, "acne vulgaris": {"system": "acne vulgaris", "assay": "16-week maintenance therapy study after adapalene-doxycycline combination therapy: efficacy (maintenance rate, lesion counts, global severity)", "format": "in vivo, human", "from_the_text": "The efficacy and safety of the adapalene gel 0.1% (Galderma Laboratories, LP, Ft. Worth, Tex.) as a maintenance therapy were compared to gel vehicle in a randomized, multicenter, vehicle-controlled, investigator-blind, parallel group study conducted at 34 centers in the United States between Nov. 13, 2003 and May 25, 2004. This study was designed to set a high threshold for achieving success. […] These subjects were re-randomized consecutively in a 1:1 ratio to receive either adapalene gel 0.1% or adapalene gel vehicle once-daily in the evening for an additional 16 weeks. Subjects were stratified by the treatment assignment received in the previous study using an interactive voice responsive system. The randomization schedule remained blinded from those involved in the clinical conduct of the study. The integrity of the blinding was ensured by packaging the topical medication in identical tubes and requiring a third party other than the investigator/evaluator to dispense the medication. Exclusion criteria prohibited enrollment of subjects with acne requiring isotretinoin therapy or other dermatologic conditions requiring interfering treatment. Women were excluded if they were pregnant, nursing, or planning a pregnancy as were men with facial hair that would interfere with the assessments. Subjects were provided Cetaphil® daily facial moisturizer SPF 15 (Galderma Laboratories, LP., Ft Worth, Tex.) to use as needed for the symptomatic relief of skin dryness or irritation. Evaluations for this study occurred at baseline and at weeks 4, 8, 12, and 16. The final visit from the previous 12-week combination study served as the baseline visit for this 16-week maintenance study. The primary efficacy variable was the failure rate at week 16, defined as the percentage of subjects unable to maintain 50% of total lesion count improvement from the previous 12-week combination therapy study (e.g., a subject entering the maintenance phase after having lost 40 lesions in the combination study was considered as a failure if the lesion count at the end of the maintenance study was increased by more than 20 lesions). Data from this assessment is presented graphically herein as a maintenance rate, which is simply 100% minus the failure rate. Secondary efficacy variables included lesion counts (total, inflammatory and non inflammatory), failure rates for inflammatory and non-inflammatory lesions, as well as global severity and global improvement of the disease. At the last visit, subject satisfaction was assessed via a 5-question survey. All data analyses were carried out according to a pre-established analysis plan. A sample size of 113 subjects per group was deemed necessary to detect a statistically significant difference in failure rate between treatment groups based on the use of a 2-tailed test with […] and a power of 90%; an assumption of a 15% efficacy difference between the 2 treatment groups; and a dropout rate of 10%. Three study populations were analyzed. The safety population was defined as all patients randomized and treated at least once. The intent-to-treat (ITT) population included all randomized subjects who were dispensed study medication. The per-protocol (PP) population included all randomized subjects without any major protocol deviations. […] Analyses for efficacy were performed on week 16 data for the ITT population and the PP population. Last observation carried forward (LOCF) methodology was used to account for missing data for the ITT population analysis (lesion counts). In addition, all subjects with missing data at week 16 were considered failures for the failure rate analysis (worst case). Age was tested at baseline with the analysis of variance (ANOVA) model with treatment, center, and their interaction as factors. All other variables were analyzed by using the Cochran-Mantel-Haenzsel (CMH) test controlling for “analysis center” and previous treatment for both the ITT and PP populations. […]"}, "[3]": {"settings": "applied as monotherapy, versus tazarotene and tretinoin formulations, cited from earlier work"}}, "note": "Where two headings read alike, the source gives them in different places."}
{"compound": "COc1ccc(-c2ccc3cc(C(=O)O)ccc3c2)cc1C12CC3CC(CC(C3)C1)C2", "note": "[adapalene, 6-[3-(1-adamantyl)-4-methoxyphenyl]-2-naphtoic acid]", "values": [{"measurement": "overall safety and tolerability", "setting": "[1]; 16-week study", "value": "safe and well tolerated"}, {"measurement": "subjects experiencing adverse events", "setting": "[1]; 16-week study", "value": 25, "unit": "%"}, {"measurement": "subjects with treatment-related adverse events (percentage)", "setting": "[1]; 16-week study", "value": 2.4, "unit": "%"}, {"measurement": "subjects with treatment-related adverse events (number)", "setting": "[1]; 16-week study, 126 subjects in group", "value": 3, "unit": "subjects"}, {"measurement": "mean worst score for each local cutaneous tolerability variable, large majority of subjects", "setting": "[1]; scale none, mild, moderate, severe", "value": "none or mild"}, {"measurement": "subjects not bothered by side effects", "setting": "[2]", "value": 90, "unit": "%"}, {"measurement": "lesion counts during the course of the study versus baseline", "setting": "acne vulgaris; 16 weeks, vehicle group gradually increased", "value": "remained stable or decreased"}, {"measurement": "subjects \"clear\" or \"almost clear\" in global severity assessment", "setting": "acne vulgaris; P=0.005 for distribution of severity scores vs vehicle", "value": 27, "unit": "%"}, {"measurement": "global assessment of improvement versus vehicle", "setting": "acne vulgaris; P=0.01", "value": "significant advantages"}, {"measurement": "total lesion counts relative to vehicle", "setting": "acne vulgaris; end point week 16, ITT, LOCF, P=0.005", "value": "significantly lower"}, {"measurement": "inflammatory lesion counts relative to vehicle", "setting": "acne vulgaris; end point week 16, ITT, LOCF, P=0.01", "value": "significantly lower"}, {"measurement": "noninflammatory lesion counts relative to vehicle", "setting": "acne vulgaris; end point week 16, ITT, LOCF, P=0.02", "value": "significantly lower"}, {"measurement": "maintenance rate, total lesion counts (subjects maintaining at least 50% of improvement from previous combination study)", "setting": "acne vulgaris; week 16, ITT, worst case (missing data = failure), once-daily for 16 weeks, P<0.001 vs vehicle", "value": 75, "unit": "%"}, {"measurement": "tolerability / cutaneous irritation profile versus other topical retinoids", "setting": "[3]", "value": "more favorable cutaneous irritation profile"}, {"measurement": "tolerability / cutaneous irritation profile versus other topical retinoids", "setting": "[3]; listed as Adapalene", "value": "more favorable tolerability profile"}]}
